Assay [1] has as its target T1, DGKζ (hDGKzeta(1-928)-N-His) (Homo sapiens, UniProt Q13574).
T1 construct: hDGKzeta(1-928)-N-His; His (N); made in house; host or cells: Sf21 insect cells (baculovirus)
Description: In vitro DGK inhibition assay, DGKzeta ADP Glo (in house). The class given is biochemical. The following applies: 2 nM DGKζ, 50 μM ATP, 125 uM DLG in liposomes, 1 hour reaction. In short, it runs like this:
(§1)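 Full-length His-tagged human DGKα (4 nM) or DGKζ (2 nM), expressed in Sf21 cells, phosphorylated 125 µM DLG in PS/PC liposomes with ATP at 25 µM (α) or 50 µM (ζ) for 1 h. ADP was measured by ADP-Glo luminescence. Compounds were tested as 11-point 1:3 series in 2% DMSO.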

A further assay concerns the target T2, DGK ζ kinase (Homo sapiens, UniProt Q13574).
T2 construct: purchased Reaction Biology Corp. (contract assay service)
In words: DGKzeta kinase ADP Glo assay run by Reaction Biology Corp. Conditions: 2 nM kinase, 50 µM ATP, 500 μM DLG, 10-dose duplicate. It counts as biochemical.

The test system of the next assay is MV-3 cells. Description: T-cell - TCB - MV3 killing assay. It counts as cell-based, human.
Assay [2] has as its target T3, DGKα (hDGKalpha(1-735)-N-His) (Homo sapiens, UniProt P23743).
T3 construct: hDGKalpha(1-735)-N-His; His (N); made in house; host or cells: Sf21 insect cells (baculovirus)
Description: In vitro DGK inhibition assay, DGKalpha ADP Glo (in house). The class given is biochemical. Conditions: 4 nM DGKα, 25 μM ATP, 125 uM DLG in liposomes, 1 hour reaction. In short, it runs like this:
as §1

pEC50, pIC50: −log10 of the molar value.

The values below come from patent US20260138976A1 (Hoffmann-La Roche Inc., priority 2022, published 2026).

T2 sequence (Q13574 whole entry): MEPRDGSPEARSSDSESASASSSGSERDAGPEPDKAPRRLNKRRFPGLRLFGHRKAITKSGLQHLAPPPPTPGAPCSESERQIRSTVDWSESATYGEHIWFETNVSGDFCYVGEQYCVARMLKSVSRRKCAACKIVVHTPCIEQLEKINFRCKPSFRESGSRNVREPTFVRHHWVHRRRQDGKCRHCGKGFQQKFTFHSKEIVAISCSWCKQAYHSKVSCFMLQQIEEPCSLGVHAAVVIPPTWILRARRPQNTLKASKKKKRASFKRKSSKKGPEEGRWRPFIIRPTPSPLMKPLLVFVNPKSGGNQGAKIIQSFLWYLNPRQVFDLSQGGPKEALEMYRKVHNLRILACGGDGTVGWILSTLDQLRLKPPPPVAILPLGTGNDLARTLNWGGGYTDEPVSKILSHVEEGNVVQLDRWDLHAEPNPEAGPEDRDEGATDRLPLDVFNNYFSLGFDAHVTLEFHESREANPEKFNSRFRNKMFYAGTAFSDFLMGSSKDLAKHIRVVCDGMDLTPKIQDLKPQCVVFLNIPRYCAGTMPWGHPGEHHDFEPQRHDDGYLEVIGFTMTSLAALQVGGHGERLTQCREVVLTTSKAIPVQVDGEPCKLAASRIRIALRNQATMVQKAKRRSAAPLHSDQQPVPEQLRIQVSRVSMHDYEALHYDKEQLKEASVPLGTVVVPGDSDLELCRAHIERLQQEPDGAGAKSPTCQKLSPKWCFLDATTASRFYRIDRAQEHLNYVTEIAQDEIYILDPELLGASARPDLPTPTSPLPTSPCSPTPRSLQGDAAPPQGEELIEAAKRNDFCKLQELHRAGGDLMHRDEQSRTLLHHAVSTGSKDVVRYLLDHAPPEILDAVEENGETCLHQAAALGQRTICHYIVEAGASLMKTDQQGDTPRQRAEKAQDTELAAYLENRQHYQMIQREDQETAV
T1 sequence (Q13574 whole entry): as above
T3 sequence (P23743 whole entry): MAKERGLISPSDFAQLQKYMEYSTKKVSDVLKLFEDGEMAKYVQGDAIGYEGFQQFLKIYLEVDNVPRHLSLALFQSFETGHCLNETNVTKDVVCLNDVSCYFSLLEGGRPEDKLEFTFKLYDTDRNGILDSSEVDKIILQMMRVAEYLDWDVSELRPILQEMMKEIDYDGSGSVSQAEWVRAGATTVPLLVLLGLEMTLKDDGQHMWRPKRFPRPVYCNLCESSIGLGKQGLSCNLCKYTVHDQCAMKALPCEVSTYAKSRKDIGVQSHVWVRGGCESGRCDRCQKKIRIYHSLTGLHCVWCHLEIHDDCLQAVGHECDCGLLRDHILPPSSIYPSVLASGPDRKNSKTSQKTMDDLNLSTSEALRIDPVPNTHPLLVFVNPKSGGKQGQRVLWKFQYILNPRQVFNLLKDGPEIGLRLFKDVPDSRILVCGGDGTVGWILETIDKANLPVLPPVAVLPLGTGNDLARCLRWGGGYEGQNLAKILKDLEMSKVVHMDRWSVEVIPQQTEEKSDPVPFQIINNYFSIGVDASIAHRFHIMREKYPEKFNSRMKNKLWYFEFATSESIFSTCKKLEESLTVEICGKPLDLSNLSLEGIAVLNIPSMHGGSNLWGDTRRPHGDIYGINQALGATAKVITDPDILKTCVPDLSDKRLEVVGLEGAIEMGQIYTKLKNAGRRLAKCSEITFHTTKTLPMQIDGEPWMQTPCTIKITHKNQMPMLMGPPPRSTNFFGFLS

As to `C[C@](N)(c1nnc(-c2ccc3c(c2)N(Cc2ccc(-c4noc(C(F)(F)F)n4)cc2)C(=O)[C@@H](N)CS3(=O)=O)o1)C(F)(F)F` [Example 53, (3R)-3-amino-7-[5-[(1S)-1-amino-2,2,2-trifluoro-1-methyl-ethyl]-1,3,4-oxadiazol-2-yl]-1,1-dioxo-5-[[4-[5-(trifluoromethyl)-1,2,4-oxadiazol-3-yl]phenyl]methyl]-2,3-dihydro-1λ^6,5-benzothiazepin-4-one], the pIC50 in assay [1] is 5.62; against DGK ζ kinase, 7.03; in assay [2], 4.36. Moreover, in the assay on MV-3 cells (Homo sapiens, MV-3, 120 h, % TCL normalized: MCSP-TCB only = neutral control, 20 μM reference compound A1 = 100%, read-out: MSCP TCB killing MV-3 cells 5 d Emax (%)), the Emax is 98%. In the assay with MV-3 cells (primary human T-cells + MV-3 RFP cells, MCSP-TCB 1.5 pM-5 pM, 120 hours imaging, read-out: MSCP TCB killing MV-3 cells 5 d EC50), the negative-log EC50 (pEC50) was 6.86.
